In paper PMC3171192 (Journal of medicinal chemistry, 2011):
*1 amine or outer side, *2 acyl side, *3 side chain or, on linkers, in order; H or OH if unused. Where a SMILES comes first, the peptide text is derived from it. [ ]: non-standard residue; d: D form. X1 = O=C(CCc1cccc2c1oc1c(CCN[*:1])cccc12)[*:2]

Key:
[1] = molecular target: T1, CD2–CD58 interaction (adhesion between T cells (Jurkat, CD2) and Caco-2 cells (CD58)) (Homo sapiens, UniProt P19256); assay: Lymphocyte-epithelial adhesion assay; format: cell-based; details: concentration range 0.0005 to 150 µM
T1 sequence (P19256 29-250): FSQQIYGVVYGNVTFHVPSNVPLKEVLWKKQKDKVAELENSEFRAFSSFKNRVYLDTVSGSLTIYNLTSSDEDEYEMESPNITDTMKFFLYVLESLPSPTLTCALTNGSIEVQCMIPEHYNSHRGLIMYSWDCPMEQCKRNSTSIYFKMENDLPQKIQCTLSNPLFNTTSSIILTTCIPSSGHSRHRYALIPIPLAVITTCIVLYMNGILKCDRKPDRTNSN

[2] = tested on: Jurkat cells; assay: CellTiter-Glo cell viability assay, Jurkat cells
[3] = tested on: Caco-2 cells; assay: CellTiter-Glo cell viability assay, Caco-2 cells

cell adhesion inhibition in the lymphocyte epithelial assay [1] | Molecule | toxicity effects on T cells [2] | toxicity effects on Caco-2 cells [3]
~18% | KGKTDAISVKAI-NH2 [control peptide] | – | –
– | CC[C@H](C)[C@@H]1NC(=O)[C@H](Cc2ccc(O)cc2)NC(=O)[C@H](CC(=O)O)NC(=O)CCc2cccc3c2Oc2c(cccc2-3)CCNC(=O)[C@H](CC(=O)O)NC(=O)[C@H](CC(=O)O)NC(=O)[C@H](CCCCN)NC1=O [Peptide 7] (cyclo(DD[X1]DYIK)) | did not show any toxicity effects | did not show any toxicity effects
